From patent publication US11213522B2, “Autoimmune-induced glutamatergic receptor dysfunction methods and treatments” (SARAH HERZOG MEMORIAL HOSPITAL EZRAT NASHIM ASSOCIATION, priority 2013, dated 2022) come the findings set out here.

The test system of this assay is Rodent neuron cell cultures treated with anti-NMDAR antibodies. As to the kind of experiment: Example 3: NMDAR localization in neuron cultures treated with anti-NMDAR antibodies. The format is cell-based. To be noted: Glycine 100-500 uM; histological measurements. How it is done:
Rodent neuron cell cultures are treated with anti-NMDAR antibodies as described in Hughes E G et al., J Neurosci 2012 30(17):5866-75. […] The determination of receptors localization and other relevant measures is based on histological measurements.
Immunohistochemical methods will be applied to document (a) localization of NMDAR and NR1 and NR2 subunits; (b) loss of oligodendrocytes; (c) changes in astrocytes (S100beta) and microglia (cd11b), (d) expression of neurotrophic factors: brain derived neurotrophic factor (BDNF), nerve growth factor (NGF) and ciliary neurotrophic factor (CNTF); (e) markers of neurogenesis—doublecortin (17) and apoptosis—caspase3 (9). Quantification of histological measurements is based on images in several cortical subregions, striatum, […], hippocampus, and cerebellum.

As to `NCC(=O)O` [Glycine], the “Effect on NMDAR intracellular localization” value is given as “reversing receptor intracellular localization”.
